From US20250075235A1, “PRODUCTION OF ETHANOL WITH ONE OR MORE CO-PRODUCTS IN YEAST” (Braskem S.A., priority 2020, published 2025)

Legend:
[1] = test system: industrial ethanol-producing yeast strain PE-2; experiment: Alcohol tolerance experiment: sugar (glucose) consumption of yeast cultures with added alcohols; type: cell-based, Saccharomyces cerevisiae; conditions: for Sugar Consumption: PE-2, YNB medium, 40 g/L glucose, 32° C., 8-9 hours, no consumption = lethal concentration; for Toxicity related to ethanol (times more inhibition than ethanol): ratio of sugar consumption inhibition per unit of alcohol to that of ethanol; for Sugar consumption inhibition per unit of alcohol regarding the Control (+) condition (no alcohol added) / Slope (linear regression of sugar consumption inhibition against alcohol concentration): samples two hours after inoculation; for Slope (linear regression of sugar consumption inhibition against alcohol concentration): alcohol concentration in g/L
Method: An alcohol tolerance experiment was conducted to understand the negative effects of n-propanol (i.e., 1-propanol), 2-propanol, and 2-butanol compared to ethanol in Saccharomyces cerevisiae. Ethanol, which is a natural product (or native product) produced during sugar-ethanol fermentation is generally well-tolerated by yeast such as S. cerevisiae. However, existing approaches to produce non-natural chemicals such as C3, C4, or C5 alcohols, ketones, organic acids, or other non-natural products (e.g., alcohols other than ethanol) by using genetically modified yeast are usually impacted negatively by the higher toxicity compared to ethanol of such non-natural chemicals or alcohols (e.g., n-propanol and 2-propanol) to the yeast cell-growth and/or performance.
Several concentrations of n-propanol, 2-propanol, 2-butanol and ethanol was tested in yeast cultures. The experiment was conducted using the industrial ethanol-producing yeast strain PE-2 in a 250 mL shaken flask with 50 mL of YNB medium having 40g/L glucose at 32° C. The culture was conducted during 8-9 hours with an initial OD600 nm=12 (OD=optical density). Samples were taken in adequate intervals and analyzed by HPLC to measure glucose, ethanol, n-propanol, 2-propanol and 2-butanol. The experiment was performed according to the parameters in Table 13, in duplicate. The conditions at which no sugar consumption was observed were considered a lethal concentration and were excluded from the analysis.
The percentage of glucose consumption inhibition was assessed for various concentrations of alcohols. Samples were tested two hours after inoculation. At this point, glucose had not been totally consumed.

[2] = test system: industrial ethanol-producing yeast strain PE-2; experiment: Laboratory simulation of yeast sugar-ethanol fermentation with exogenously added alcohols; type: cell-based, Saccharomyces cerevisiae; conditions: 1 L bioreactor, 224 g/L glucose, pH 4.5, 32° C., 70 hours; about 16 g alcohol added
Method: The experiment was performed using a 1 L bioreactor with 0.7 L as a final volume. The pH was controlled at 4.5 by adding NaOH 25% w/w, 32° C. temperature and 300 rpm stirring. The industrial ethanol-producing yeast strain used was PE-2, with an initial pitch of 0.7 g/L DWC and the culture medium was YNB without amino acids. The final sugar concentration was 224 g/L glucose. The experiment was performed under aseptic conditions. The bioreactor was first filled with 650 ml of YNB medium plus sugar, and after pH and temperature stabilization, a suspension of 50 mL with the yeast inoculum was added into the bioreactor. […] Each solution followed the profile: 10 hours since inoculation, 0.2 mL/min; from 11 hours to 15 hours, 0.4 mL/min; from 16 hours to 40 hours, 0.6 mL/min; and from 41 hours to 46 hours, 0.2 mL/min. This profile was added to simulate an ethanol production profile of PE-2 yeast. The fermentation was ended with 70 hours of fermentation run.

Molecule | Sugar Consumption ([1]; alcohol 20 g/L) | Sugar Consumption ([1]; alcohol 40 g/L) | Sugar Consumption ([1]; alcohol 60 g/L) | Sugar Consumption ([1]; alcohol 80 g/L) | Toxicity related to ethanol (times more inhibition than ethanol) [1] | Sugar consumption inhibition per unit of alcohol regarding the Control (+) condition (no alcohol added) [1] | Slope (linear regression of sugar consumption inhibition against alcohol concentration) [1] | Ethanol produced [2] | Ethanol yield [2] | Volumetric productivity [2] | Sugar Consumption ([1]; alcohol 120 g/L)
n-propanol | Yes | Yes | Yes | No | 2.16 | 1.34% per g · L^−1 of alcohol | 0.0134 |  |  |  | 
CCO [Condition 1, ethanol] |  |  |  |  |  |  |  | 80.9 g | 0.5 g/g | 1.4 g/Lh | 
CC(C)O [2-Propanol, isopropyl alcohol] | Yes | Yes | Yes | Yes | 1.45 | 0.90% per g · L^−1 of alcohol | 0.009 |  |  |  | 
CCO [Ethanol, ethanol] | Yes | Yes | Yes | Yes |  | 0.62% per g · L^−1 of alcohol | 0.0062 |  |  |  | Yes
2-butanol | Yes | Yes | No | No | 2.94 | 1.82% per g · L^−1 of alcohol | 0.0182 |  |  |  | 
